The values that follow come from ChEMBL document CHEMBL2073748, “Na(+)-dependent carnitine transport by organic cation transporter (OCTN2): its pharmacological and toxicological relevance” (J Pharmacol Exp Ther, 1999).

Common to all, as to type: functional, cell-based
Series [1] concerns the target T1, Organic cation/carnitine transporter 2 (Homo sapiens, UniProt O76082).
T1 sequence (O76082 whole entry): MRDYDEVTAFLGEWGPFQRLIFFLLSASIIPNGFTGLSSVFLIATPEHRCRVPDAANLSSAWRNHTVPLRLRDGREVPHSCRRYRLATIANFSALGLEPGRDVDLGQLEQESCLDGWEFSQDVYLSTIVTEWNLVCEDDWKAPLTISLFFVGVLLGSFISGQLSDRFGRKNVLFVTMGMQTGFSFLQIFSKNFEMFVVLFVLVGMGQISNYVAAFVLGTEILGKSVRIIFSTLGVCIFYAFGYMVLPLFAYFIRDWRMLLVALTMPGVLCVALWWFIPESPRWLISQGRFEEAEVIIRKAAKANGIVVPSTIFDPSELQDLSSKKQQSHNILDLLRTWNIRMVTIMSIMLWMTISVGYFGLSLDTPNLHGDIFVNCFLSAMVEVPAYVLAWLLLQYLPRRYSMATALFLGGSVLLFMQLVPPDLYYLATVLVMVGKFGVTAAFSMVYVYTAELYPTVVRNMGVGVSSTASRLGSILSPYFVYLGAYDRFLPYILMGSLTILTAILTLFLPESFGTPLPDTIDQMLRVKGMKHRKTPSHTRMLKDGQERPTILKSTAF
The series can be described thus: TP_TRANSPORTER: inhibition of Carnitine uptake (Carnitine: 0.010? uM, Pivalate: 500 uM) in OCTN2-expressing HEK293 cells. The conditions noted are these: hek293, 500 µM.

Series [2] concerns the target T1, Organic cation/carnitine transporter 2. The series can be described thus: TP_TRANSPORTER: inhibition of Carnitine uptake (Carnitine: 0.010? uM, alphaKG: 500 uM) in OCTN2-expressing HEK293 cells. The conditions noted are these: hek293, 500 µM.
The target is the same in series [3]. Briefly: TP_TRANSPORTER: uptake in OCTN2-expressing HEK293 cells.
The target is the same in series [4]. Briefly: TP_TRANSPORTER: inhibition of Carnitine uptake (Carnitine: 0.010? uM, PAH: 500 uM) in OCTN2-expressing HEK293 cells. The conditions noted are these: hek293, 500 µM.
For series [5] the target is unchanged. The series can be described thus: TP_TRANSPORTER: inhibition of Carnitine uptake (Carnitine: 0.010? uM, Gly-Sar: 500 uM) in OCTN2-expressing HEK293 cells. The conditions noted are these: hek293, 500 µM.
For series [6] the target is unchanged. Briefly: TP_TRANSPORTER: inhibition of Carnitine uptake (Carnitine: 0.010? uM, SPLX: 500 uM) in OCTN2-expressing HEK293 cells. The conditions noted are these: hek293, 500 µM.
Series [7] shares this target. Briefly: TP_TRANSPORTER: inhibition of Carnitine uptake (Carnitine: 0.010? uM, NMN: 500 uM) in OCTN2-expressing HEK293 cells. The conditions noted are these: hek293, 500 µM.
The target is the same in series [8]. The series can be described thus: TP_TRANSPORTER: inhibition of Carnitine uptake (Carnitine: 0.010? uM, Guanidine: 500 uM) in OCTN2-expressing HEK293 cells. The conditions noted are these: hek293, 500 µM.
For series [9] the target is unchanged. The series can be described thus: TP_TRANSPORTER: inhibition of Carnitine uptake (Carnitine: 0.010? uM, Norfloxacin: 500 uM) in OCTN2-expressing HEK293 cells. The conditions noted are these: hek293, 500 µM.

Non-standard residues stand in square brackets, D forms with d. Residues, ends and D or L forms follow the SMILES beside them. Sar = CNCC(=O)O

Regarding `CC(C)(C)C(=O)O` [PIVALATE], the Activity entry in series [1] was “is not an inhibitor [-]”. As for `O=C(O)CCC(=O)C(=O)O` [ALPHA-KETOGLUTARIC ACID], the Activity result in [2] is “is not an inhibitor [-]”. On to `Nc1ccc(C(=O)NCC(=O)O)cc1` [AMINOHIPPURIC ACID], for which the Activity result is “is not a substrate [-]” in series [3] and “is not an inhibitor [-]” in series [4]. On to `CN(CC(=O)O)C(=O)CN` [GLYCYLSARCOSINE] (H-Gly-[Sar]-OH), for which, in [5], the Activity result is “is not an inhibitor [-]”. For `C[C@@H]1CN(c2c(F)c(N)c3c(=O)c(C(=O)O)cn(C4CC4)c3c2F)C[C@H](C)N1` [SPARFLOXACIN], the Activity result in [6] was “is not an inhibitor [-]”.

In the case of `CNC(=O)c1cccnc1` [NICOTINYL METHYLAMIDE], the Activity result in [7] is “is not an inhibitor [-]”. Take `N=C(N)N` [GUANIDINE]: the Activity result was “is not a substrate [-]” in series [3] and “is not an inhibitor [-]” in series [8].

For the molecule `CCn1cc(C(=O)O)c(=O)c2cc(F)c(N3CCNCC3)cc21` [NORFLOXACIN], the Activity result in series [9] was “is not an inhibitor [-]”.
